In ChEMBL document CHEMBL4251583, “Quinoxaline: An insight into the recent pharmacological advances” (Eur J Med Chem, 2018):
Converted amounts (≈) assume the structure as drawn.

Key:
[1] = tested on: WI-38; assay: Cytotoxicity against human WI38 cells assessed as cell growth inhibition after 48 hrs by SRB assay; type: cell-based; details: WI-38, 48 h
[2] = tested on: Rattus norvegicus; assay: Antiinflammatory activity in carrageenan-induced paw edema Wistar rat model assessed as protection against edema formation up to 2000 mg/kg, po measured 3 hrs post dose relative to control; type: functional
[3] = tested on: SK-N-SH; assay: Antiproliferative activity against human SK-N-SH cells after 72 hrs by MTT assay; type: functional, cell-based
[4] = tested on: IMR-32; assay: Antiproliferative activity against human IMR32 cells after 72 hrs by MTT assay; type: functional, cell-based; details: IMR-32, 72 h
[5] = tested on: Proteus vulgaris; assay: Antibacterial activity against Proteus vulgaris ATCC 29905 after 18 hrs by broth microdilution method; type: functional; details: ATCC 29905, 18 h
[6] = tested on: Mycobacterium tuberculosis; assay: Antitubercular activity against Mycobacterium tuberculosis H37Rv after 5 days by MABA method; type: functional; details: 120 h
[7] = tested on: Salmonella typhimurium; assay: Antibacterial activity against […] ATCC 14028 after 18 hrs by broth microdilution method; type: functional, Salmonella enterica subsp. enterica serovar Typhimurium; details: Salmonella enterica, ATCC 14028, 18 h
[8] = tested on: Pseudomonas aeruginosa; assay: Antibacterial activity against Pseudomonas aeruginosa ATCC 27853 after 18 hrs by broth microdilution method; type: functional; details: ATCC 27853, 18 h
[9] = tested on: Escherichia coli; assay: Antibacterial activity against Escherichia coli ATCC 25922 after 18 hrs by broth microdilution method; type: functional; details: ATCC 25922, 18 h
[10] = tested on: Staphylococcus aureus; assay: Antibacterial activity against Staphylococcus aureus ATCC 25923 after 18 hrs by broth microdilution method; type: functional; details: ATCC 25923, 18 h
[11] = tested on: Rattus norvegicus; assay: Antiinflammatory activity in carrageenan-induced paw edema rat model assessed as inhibition of carrageenan-induced edema relative to control; type: functional
[12] = tested on: Rattus norvegicus; assay: Antiinflammatory activity in carrageenan-induced paw edema Fisher 344 rat model assessed as protection against carrageenan-induced edema at 0.01 mmol/kg, ip administered simultaneously with carrageenan measured at 3.5 hrs post carrageenan injection relative to control; type: functional; details: Fisher 344, ip
[13] = tested on: Plasmodium falciparum; assay: Antiplasmodial activity against chloroquine-resistant Plasmodium falciparum FCR-3 infected in human erythrocytes after 3 days by [3H]-hypoxanthine incorporation assay; type: functional, organism-based; details: FCR-3/Gambia
[14] = tested on: Plasmodium falciparum; assay: Antiplasmodial activity against Plasmodium falciparum K1 infected in human erythrocytes preincubated for 24 hrs followed by [3H]hypoxanthine addition measured after 24 hrs by scintillation counting; type: functional, organism-based
[15] = Selectivity index, ratio of IC50 for human KB cells to IC50 for Plasmodium falciparum K1 infected in human erythrocytes; type: toxicity, cell-based; details: read-out: Ratio IC50
[16] = Therapeutic index, ratio of CC50 for human MT4 cells to EC50 for HIV1 infected in human MT4 cells; type: toxicity, cell-based; details: uninfected versus HIV1-infected, read-out: Ratio EC50

SMILES: Brc1ccc2nc(N3CCOCC3)c3nnnn3c2c1
- IC50 [1]: > 100 µg/mL

SMILES: Cc1nc2ccccc2nc1CCC(=O)N/N=C/c1ccco1
- inhibition (INH) [2]: 55.3 - 65.9%

SMILES: CC(C)Cc1ccc(C(C)C(=O)O)cc1 (stereo not given) [IBUPROFEN]
- inhibition (INH) [2]: 73.5%

SMILES: O=[N+]([O-])c1ccc(C2OC2c2cnc3ccccc3n2)o1 (stereo not given)
- IC50 [3]: 3.9 µM
- IC50 [4]: 5 µM

SMILES: Cc1nc2ccccc2nc1CCC(=O)N/N=C/c1c[nH]c2ccccc12
- inhibition (INH) [2]: 55.3 - 65.9%

SMILES: O=c1[nH]c2ccccc2[nH]/c1=N/N=C/[C@@H]1O[C@H](CO)[C@@H](O)[C@H](O)[C@H]1O
- MIC [5]: 2.07 µM (≈ 0.725 µg/mL)
- MIC [6]: 0.65 µM (≈ 0.228 µg/mL)
- MIC [7]: 2.07 µM (≈ 0.725 µg/mL)
- MIC [8]: 2.07 µM (≈ 0.725 µg/mL)
- MIC [9]: 2.07 µM (≈ 0.725 µg/mL)
- MIC [10]: 2.07 µM (≈ 0.725 µg/mL)

SMILES: COc1ccc(/C=N/N=c2/[nH]c3ccccc3nc2CCC(=O)O)cc1
- inhibition (INH) [11]: 66.04%

SMILES: Cc1nc2ccccc2nc1CCC(=O)N/N=C/c1ccc(Cl)cc1
- inhibition (INH) [2]: 55.3 - 65.9%

SMILES: [N-]=[N+]=Nc1nc2cc(Br)ccc2nc1Cl
- IC50 [1]: > 100 µg/mL

SMILES: COc1ccc2nc(C)c(-c3cc(-c4cc(OC)c(OC)c(OC)c4)nc(N)n3)nc2c1
- inhibition in vivo at 10 µmol/kg [12]: 41%

SMILES: Brc1ccc2c(c1)n1nnnc1c1nnnn21
- IC50 [1]: > 100 µg/mL

SMILES: Cc1nc2ccccc2nc1CCC(=O)N/N=C/c1ccc(N(C)C)cc1
- inhibition (INH) [2]: 55.3 - 65.9%

SMILES: COc1ccc(/C=N/N=c2/[nH]c3ccc(C)cc3nc2CCC(=O)O)cc1
- inhibition (INH) [11]: 69.85%

SMILES: COc1cc(/C=C/C(=O)c2c(C)[n+]([O-])c3ccccc3[n+]2[O-])cc(OC)c1OC
- IC50 [13]: 6.2 µM

SMILES: N#Cc1c(-c2ccco2)[n+]([O-])c2ccccc2[n+]1[O-]
- IC50 [14]: 0.63 µM
- selectivity ratio [15]: 10.3

SMILES: COc1ccc2c(c1)c(CC(=O)O)c(C)n2C(=O)c1ccc(Cl)cc1 [INDOMETHACIN]
- inhibition in vivo at 10 µmol/kg [12]: 47%
- inhibition (INH) [11]: 79.5%

SMILES: Cc1cc2ncc(=O)n(CC(O)CO)c2cc1C (stereo not given)
- selectivity ratio [16]: 73

SMILES: Cc1nc2ccccc2nc1CCC(=O)N/N=C/c1ccc(O)cc1
- inhibition (INH) [2]: 55.3 - 65.9%

SMILES: Cc1c(C(=O)/C=C/c2ccc3ccccc3c2)[n+]([O-])c2ccccc2[n+]1[O-]
- IC50 [13]: 5.8 µM

SMILES: O=c1[nH]c2ccccc2[nH]/c1=N/N=C/[C@@H]1O[C@H](CO)[C@@H](O[C@H]2O[C@H](CO)[C@@H](O)[C@H](O)[C@H]2O)[C@H](O)[C@H]1O
- MIC [5]: 2.07 µM (≈ 1.06 µg/mL)
- MIC [6]: 0.65 µM (≈ 0.333 µg/mL)
- MIC [7]: 2.07 µM (≈ 1.06 µg/mL)
- MIC [8]: 2.07 µM (≈ 1.06 µg/mL)
- MIC [9]: 2.07 µM (≈ 1.06 µg/mL)
- MIC [10]: 2.07 µM (≈ 1.06 µg/mL)

SMILES: O=c1[nH]c2ccccc2[nH]/c1=N/N=C/[C@@H]1O[C@H](CO)[C@@H](O[C@@H]2O[C@H](CO)[C@H](O)[C@H](O)[C@H]2O)[C@H](O)[C@H]1O
- MIC [5]: 2.07 µM (≈ 1.06 µg/mL)
- MIC [6]: 0.65 µM (≈ 0.333 µg/mL)
- MIC [7]: 2.07 µM (≈ 1.06 µg/mL)
- MIC [8]: 2.07 µM (≈ 1.06 µg/mL)
- MIC [9]: 2.07 µM (≈ 1.06 µg/mL)
- MIC [10]: 2.07 µM (≈ 1.06 µg/mL)

SMILES: O=c1[nH]c2ccccc2[nH]/c1=N/N=C/[C@@H]1O[C@H](CO)[C@@H](O)[C@H](O)[C@@H]1O
- MIC [5]: 2.07 µM (≈ 0.725 µg/mL)
- MIC [6]: 0.65 µM (≈ 0.228 µg/mL)
- MIC [7]: 2.07 µM (≈ 0.725 µg/mL)
- MIC [8]: 2.07 µM (≈ 0.725 µg/mL)
- MIC [9]: 2.07 µM (≈ 0.725 µg/mL)
- MIC [10]: 2.07 µM (≈ 0.725 µg/mL)

SMILES: Brc1ccc2nc(N3CCCCC3)c3nnnn3c2c1
- IC50 [1]: > 100 µg/mL

SMILES: COc1ccc2c(c1)[n+]([O-])c(C#N)c(-c1ccco1)[n+]2[O-]
- IC50 [14]: 0.28 µM

SMILES: c1ccc2nccnc2c1 [QUINOXALINE]
- IC50 [3]: 4.6 µM
- IC50 [4]: 13 µM

SMILES: Cc1nc2ccccc2nc1CCC(=O)N/N=C/c1ccccc1
- inhibition (INH) [2]: 55.3 - 65.9%
